# Where a SMILES comes first, the peptide text is derived from it. Bridges are numbered along the chain shown (N, C = ends). Roman numbers before positions name the chains, in order. The star is where a group is joined. Palmitoyl = CCCCCCCCCCCCCCCC(=O)*; Lauroyl = CCCCCCCCCCCC(=O)*
# What was measured:
# [1] = RP-HPLC retention to evaluate the hydrophobicity of lipopeptides; assay type: physicochemical; conditions: chromatographic, Luna C18(2) 3.0 × 100 mm, 5.0 µm, linear 20–80% acetonitrile in water over 10 min, 0.1% formic acid, 0.5 mL/min, UV 214 nm, used to evaluate hydrophobicity
# Protocol: The crude peptide was lyophilized and subsequently purified by RP-HPLC. The purifications were carried out on a Phenomenex Gemini-NX C18 column (21.20 × 100 mm, 5.0 µm particle size, and 110 Å pore size). Acetonitrile and water, both containing 0.1% of TFA, were used as the mobile phase. UV detection at 214 nm was used. The crude peptides were eluted with a linear 20–80% acetonitrile gradient in deionized water over 60 min at a flow rate of 10.0 mL/min. The purity and identity of the peptides were confirmed with LC-MS analysis. A Waters Alliance e2695 RP-HPLC system (Waters, Milford, MA, USA) with Waters 2998 PDA (Waters, Milford, MA, USA) and Acquity QDA detectors (Empower®3 software, Database Version 7.21.00.00) was used. All analyses were carried out on a Phenomenex, Luna C18(2) column (3.0 × 100 mm, 5.0 µm particle size, 100 Å pore size). The samples were analyzed with a linear 20–80% acetonitrile gradient in deionized water over 10 min at a flow rate of 0.5 mL/min with UV detection at 214 nm. Both eluents contained 0.1% (v/v) of formic acid. The pure fractions (>95%, by HPLC analysis) were collected and lyophilized. The retention time and percentage of ACN (%) at which each peptide was eluted are included in Table 1 to evaluate the hydrophobicity of lipopeptides. The identity of all compounds was confirmed using mass spectrometry (Waters Alliance e2695 system with Acquity QDA detector, Waters, Milford, MA, USA) with electrospray ionization in positive ion mode (ESI-MS). In this mode, a proton is attached to basic moieties (amine groups, guanidine groups). The theoretical mass of the peptide was calculated and then expected ions (m/z—mass to charge ratio) were compared to measured m/z. The results are presented in Table 1, and mass spectra are presented in the Supplementary Materials.
# [2] = tested on: Enterococcus faecalis ATCC 29212; experiment: MBFIC assay (biofilm formation inhibition, resazurin); assay type: cell-based; conditions: ca. 5 × 10^8 CFU/mL in MHB II, 37 °C, 18 h, visual, triplicate; for MBFIC E. faecalis, CL: contact lenses (CL, Etafilcon A hydrogel) in 24-well plates; for MBFIC E. faecalis, PS: polystyrene plates (PS), 96-well
# Protocol: (§1) To determine the inhibitory effect of antimicrobials on the formation of biofilm on hydrophobic surfaces, the bacterial suspensions of strains (initial inoculum of ca. 5 × 10^8 CFU/mL in MHB II medium supplemented with antimicrobials) were cultured on 96-well PS at 37 °C for 18 h under aerobic conditions. After incubation, the suspensions were aspirated, and the wells were rinsed three times with sterile phosphate buffer PBS (AppliChem, Darmstadt, Germany) in order to remove the planktonic cells. Resazurin (final concentration per sample = 0.005%) was applied as a cell viability reagent for reading the results. In contact with the living cells, the dye is metabolized by bacterial dehydrogenases, resulting in a reduction of blue resazurin to pink resorufin. All assays were performed in triplicate and included the growth controls (positive controls: bacterial suspensions without antimicrobials) and the sterility controls (negative controls: a sterile MBH medium). After 1h of incubation, a visual evaluation of results was made. […] In a preliminary study, it was established that the application of lipopeptides at a concentration found active from visual evaluation caused the reduction of bacterial metabolism to approximately 10% (or less) of the positive control once the results were evaluated with a spectrophotometer. After 1 h of incubation with the dye, absorbance was measured at 570 and 600 nm using a microplate reader (Thermo Fisher Scientific, Waltham, MA, USA). The metabolic activity of bacteria in the samples was measured according to the formula presented in the previous paper.
# (§2) The MBFIC assay with CL was applied in order to access the influence of lipopeptides on the biofilm formation on hydrogel surfaces. The entire sterile CL (1-Day Acuvue Moist, containing Etafilcon A., purchased from Johnson & Johnson (Vision Care, Jacksonsville, FL, USA), were placed in 24-well PS (Orange Scientific, Braine-l’ Alleud, Belgium) and the MBFICs were determined according to the above protocol.
# [3] = tested on: Proteus mirabilis PCM 543; experiment: as above; assay type: cell-based; conditions: ca. 5 × 10^8 CFU/mL in MHB II, 37 °C, 18 h, visual, triplicate; for MBFIC P. mirabilis, CL: contact lenses (CL, Etafilcon A hydrogel) in 24-well plates; for MBFIC P. mirabilis, PS: polystyrene plates (PS), 96-well
# Protocol: as §1, §2
# [4] = tested on: Escherichia coli ATCC 25922; experiment: as above; assay type: cell-based; conditions: ca. 5 × 10^8 CFU/mL in MHB II, 37 °C, 18 h, visual, triplicate; for MBFIC E. coli, CL: contact lenses (CL, Etafilcon A hydrogel) in 24-well plates; for MBFIC E. coli, PS: polystyrene plates (PS), 96-well
# Protocol: as §1, §2
# [5] = tested on: Staphylococcus epidermidis ATCC 14990; experiment: as above; assay type: cell-based; conditions: ca. 5 × 10^8 CFU/mL in MHB II, 37 °C, 18 h, resazurin, visual, triplicate; for MBFIC S. epidermidis, CL: contact lenses (CL, Etafilcon A hydrogel) in 24-well plates; for MBFIC S. epidermidis, PS: polystyrene plates (PS), 96-well
# Protocol: as §1, §2
# [6] = tested on: Staphylococcus aureus ATCC 25923; experiment: as above; assay type: cell-based; conditions: ca. 5 × 10^8 CFU/mL in MHB II, 37 °C, 18 h, resazurin, visual, triplicate; for MBFIC S. aureus, CL: contact lenses (CL, Etafilcon A hydrogel) in 24-well plates; for MBFIC S. aureus, PS: polystyrene plates (PS), 96-well
# Protocol: as §1, §2
# [7] = tested on: Pseudomonas aeruginosa ATCC 9027; experiment: as above; assay type: cell-based; conditions: ca. 5 × 10^8 CFU/mL in MHB II, 37 °C, 18 h, visual, triplicate; for MBFIC P. aeruginosa, CL: contact lenses (CL, Etafilcon A hydrogel) in 24-well plates; for MBFIC P. aeruginosa, PS: polystyrene plates (PS), 96-well
# Protocol: as §1, §2
# [8] = tested on: Enterococcus faecalis ATCC 29212; assay type: cell-based; conditions: ATCC 29212, 18 h
# Protocol: (§3) The reference strains of gram-positive and gram-negative bacteria (Table 2) were obtained from the Polish Collection of Microorganisms (Polish Academy of Science, Wroclaw, Poland). The microorganisms were cultured in Muller Hinton Broth II (MHB II, Biocorp, Warsaw, Poland), overnight, at 37 °C. The MICs of synthetic lipopeptides and conventional antimicrobials were determined using the broth microdilution method according to the Clinical and Laboratory Standard Institute (CLSI) guidelines on reference strains. […] The PS were incubated under aerobic conditions at 37 °C for 18 h. The MIC (μg/mL) was assumed as the lowest concentration of the compound that inhibited the growth of the microorganisms. All experiments were performed in triplicate and included the growth and sterility controls.
# [9] = tested on: Escherichia coli ATCC 25922; assay type: cell-based; conditions: ATCC 25922, 18 h
# Protocol: as §3
# [10] = tested on: Staphylococcus epidermidis ATCC 14990; assay type: cell-based; conditions: ATCC 14990, 18 h
# Protocol: as §3
# [11] = tested on: Staphylococcus aureus ATCC 25923; assay type: cell-based; conditions: ATCC 25923, 18 h
# Protocol: as §3
# [12] = tested on: Pseudomonas aeruginosa ATCC 9027; assay type: cell-based; conditions: ATCC 9027, 18 h
# Protocol: as §3
# [13] = tested on: Enterococcus faecalis ATCC 29212; assay type: cell-based; conditions: ATCC 29212, 24 h
# Protocol: (§4) The biofilms of bacteria associated with the biofilm-related infections were cultured on 96-well flat bottom PS and on CL placed in 24-well plates. The bacteria at initial inoculums of 5 × 10^8 CFU/mL in MHB II were added to the plates and incubated at 37 °C under aerobic conditions. After 24 h of incubation, all cultures were rinsed three times with PBS and fresh medium was added. Subsequently, the obtained biofilm cultures were exposed to solutions of antimicrobials applied at graded concentrations ranging from 1 to 512 μg/mL for 24 h at 37 °C. The anti-biofilm activity of antimicrobials was visualized by resazurin (final concentration per sample = 0.005%) in the same way as in the MBFIC assay. All experiments were performed in triplicate and included growth controls (positive control: bacterial suspension without antimicrobials) and sterility controls (negative controls: sterile MBH II medium).
# [14] = tested on: Proteus mirabilis PCM 543; assay type: cell-based; conditions: PCM 543, 24 h
# Protocol: as §4
# [15] = tested on: Escherichia coli ATCC 25922; assay type: cell-based; conditions: ATCC 25922, 24 h
# Protocol: as §4
# [16] = tested on: Staphylococcus epidermidis ATCC 14990; assay type: cell-based; conditions: ATCC 14990, 24 h
# Protocol: as §4
# [17] = tested on: Staphylococcus aureus ATCC 25923; assay type: cell-based; conditions: ATCC 25923, 24 h
# Protocol: as §4
# [18] = tested on: Pseudomonas aeruginosa ATCC 9027; assay type: cell-based; conditions: ATCC 9027, 24 h
# Protocol: as §4
# [19] = tested on: EC biofilm; conditions: cited from earlier work
# Source text: (§5) They were ineffective against PM, which was difficult to eradicate with peptides (and antibiotics) in previously performed studies. PM can cause infections of the urinary tract, skin, subcutaneous tissue, and wounds. PM is known as a biofilm former, and an evident increase of PM resistance to broad-spectrum fluoroquinolones and cephalosporins has been observed. In the previous study, mature PM b ...
# [20] = tested on: PA biofilm; conditions: cited from earlier work
# Source text: as §5
# [21] = tested on: SA biofilms; design: method as in PMID 24779193; conditions: cited from earlier work
# [22] = tested on: PM biofilm; conditions: cited from earlier work
# Source text: as §5
molecule,measurement,setting,value
"CCCCCCCCCCCC(=O)N[C@@H](CCCCN)C(=O)N[C@@H](CCCNC(=N)N)C(N)=O [Lipopeptide 2, C12-KR-NH2] (Lauroyl-Lys-Arg-NH2)",% ACN at which the peptide was eluted,[1],33.9%
same,tR' (adjusted retention time),[1],2.32 min
same,"MBFIC E. faecalis, CL",[2],512/512 μg/mL
same,"MBFIC E. faecalis, PS",[2],512/512 μg/mL
same,"MBFIC P. mirabilis, CL",[3],>512/512 μg/mL
same,"MBFIC P. mirabilis, PS",[3],>512/512 μg/mL
same,"MBFIC E. coli, CL",[4],128 µg/mL
same,"MBFIC E. coli, PS",[4],512 µg/mL
same,"MBFIC S. epidermidis, CL",[5],32 µg/mL
same,"MBFIC S. epidermidis, PS",[5],16 µg/mL
same,"MBFIC S. aureus, CL",[6],128 µg/mL
same,"MBFIC S. aureus, PS",[6],64 µg/mL
same,"MBFIC P. aeruginosa, CL",[7],512/512 μg/mL
same,"MBFIC P. aeruginosa, PS",[7],512/512 μg/mL
same,MIC E. faecalis,[8],64 µg/mL
same,MIC E. coli,[9],512 µg/mL
same,MIC S. epidermidis,[10],32 µg/mL
same,MIC S. aureus,[11],64 µg/mL
same,MIC P. aeruginosa,[12],512 µg/mL
same,"MBEC E. faecalis, CL",[13],128 µg/mL
same,"MBEC P. mirabilis, CL",[14],>512/>512 μg/mL
same,"MBEC E. coli, CL",[15],512 µg/mL
same,"MBEC S. epidermidis, CL",[16],256 µg/mL
same,"MBEC S. aureus, CL",[17],> 512 µg/mL
same,"MBEC P. aeruginosa, CL",[18],>512/>512 μg/mL
"CCCCCCCCCCCCCCCC(=O)N[C@@H](CCCCN)C(=O)N[C@@H](CCCCN)C(=O)N[C@@H](CSSC[C@H](NC(=O)[C@H](CCCCN)NC(=O)[C@H](CCCCN)NC(=O)CCCCCCCCCCCCCCC)C(N)=O)C(N)=O [Lipopeptide 6, C16-KKC-NH2] (I: Palmitoyl-Lys-Lys-Cys-NH2 / II: Palmitoyl-Lys-Lys-Cys-NH2; disulfide I:3-II:3)",% ACN at which the peptide was eluted,[1],47.8%
same,tR' (adjusted retention time),[1],4.63 min
same,"MBFIC E. faecalis, CL",[2],256/256 μg/mL
same,"MBFIC E. faecalis, PS",[2],256/256 μg/mL
same,"MBFIC P. mirabilis, CL",[3],>512/512 μg/mL
same,"MBFIC P. mirabilis, PS",[3],>512/512 μg/mL
same,"MBFIC E. coli, CL",[4],128 µg/mL
same,"MBFIC E. coli, PS",[4],512 µg/mL
same,"MBFIC S. epidermidis, CL",[5],64 µg/mL
same,"MBFIC S. epidermidis, PS",[5],256 µg/mL
same,"MBFIC S. aureus, CL",[6],64 µg/mL
same,"MBFIC S. aureus, PS",[6],256 µg/mL
same,"MBFIC P. aeruginosa, CL",[7],256 µg/mL
same,"MBFIC P. aeruginosa, PS",[7],512 µg/mL
same,MIC E. faecalis,[8],256 µg/mL
same,MIC E. coli,[9],256 µg/mL
same,MIC S. epidermidis,[10],128 µg/mL
same,MIC S. aureus,[11],256 µg/mL
same,MIC P. aeruginosa,[12],256 µg/mL
same,"MBEC E. faecalis, CL",[13],512/512 μg/mL
same,"MBEC P. mirabilis, CL",[14],>512/>512 μg/mL
same,"MBEC E. coli, CL",[15],512/512 μg/mL
same,"MBEC S. epidermidis, CL",[16],256/256 μg/mL
same,"MBEC S. aureus, CL",[17],512 µg/mL
same,"MBEC P. aeruginosa, CL",[18],>512/>512 μg/mL
O=C(N[C@H](CO)[C@H](O)c1ccc([N+](=O)[O-])cc1)C(Cl)Cl [chloramphenicol],activity against EC biofilms,[19],rather weak activity
same,activity against PA biofilm,[20],weak antibiofilm agents
same,susceptibility of SA biofilms,[21],resistant
O=C(O)c1cn(C2CC2)c2cc(N3CCNCC3)c(F)cc2c1=O [ciprofloxacin],effective concentration against EC biofilm,[19],1 µg/mL
same,concentration eliminating PA biofilm,[20]; 3-day-old structures,4 µg/mL
same,susceptibility of mature PM biofilms,[22],resistant
same,susceptibility of SA biofilms,[21],resistant
C16-KK-NH2 [Lipopeptide C16-KK-NH2],concentration eradicating the PM biofilm,[22]; mature PM biofilms,512 µg/mL

# Source: PMC6835763, “Influence of Short Cationic Lipopeptides with Fatty Acids of Different Chain Lengths on Bacterial Biofilms Formed on Polystyrene and Hydrogel Surfaces” (Pharmaceutics, 2019)
